# From PubChem BioAssay (NCI)
# Values joined by “and” are separate entries in the source; they are usually repeats but may differ in a detail not shown here. Identical values can stand only once.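 Five concentrations, 48 hours, 96-well plates. GI50 is the concentration that inhibits growth by half. TGI: concentration producing complete growth inhibition.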
# What was measured:
# Test in all cases: inhibition of tumour cell growth, NCI panel, 48 h
# HL-60(TB) leukemia = test system: HL-60(TB) leukemia
# NCI-H23 lung = test system: NCI-H23 lung
# DLD-1 colon = test system: DLD-1 colon
# KM20L2 colon = test system: KM20L2 colon
# TK-10 renal = test system: TK-10 renal
# NCI-H460 lung = test system: NCI-H460 lung
# HOP-62 NSCLC = test system: HOP-62 NSCLC
# T-47D breast = test system: T-47D breast
# MCF7 breast = test system: MCF7 breast
# NCI/ADR-RES ovarian = test system: NCI/ADR-RES ovarian
Compound,TGI (HL-60(TB) leukemia),TGI (NCI-H23 lung),TGI (DLD-1 colon),TGI (KM20L2 colon),TGI (TK-10 renal),TGI (NCI-H460 lung),TGI (HOP-62 NSCLC),TGI (T-47D breast),TGI (MCF7 breast),TGI (NCI/ADR-RES ovarian),GI50 (HL-60(TB) leukemia),GI50 (HOP-62 NSCLC),GI50 (NCI-H23 lung),GI50 (DLD-1 colon),GI50 (KM20L2 colon),GI50 (TK-10 renal),GI50 (NCI-H460 lung),GI50 (T-47D breast),GI50 (MCF7 breast),GI50 (NCI/ADR-RES ovarian)
O=C(CCC(=O)Nc1cccc(C(F)(F)F)c1)CC(=O)c1ccc2ccccc2c1,> 100 µM,> 100 µM,> 100 µM,> 100 µM,> 100 µM,> 100 µM,,,,,,,,,,,,,,
COc1cc(/C=C(\NC(=O)c2ccccc2)c2nc3ncncc3[nH]2)cc(OC)c1OC,> 100 µM,> 100 µM,> 100 µM,> 100 µM,> 100 µM,,,,,,,,,,,,,,,
N#C/C(=C1\OC(=N)C(c2ccccc2)C1=O)c1ccccc1 (configuration not stated),54.4 µM,,39.1 µM,> 100 µM,68.5 µM,> 100 µM,> 100 µM,,,,,,,,,,,,,
CC1=CP(=O)(c2ccccc2)C=C(C)C1=C(Cl)Cl (configuration not stated),5.61 µM,34.9 µM,27.1 µM,4.61 µM,43.3 µM,59.1 µM,12.5 µM,,,,,,,,,,,,,
O=C1C=C2CCCC2C(C(=O)O)(C(=O)O)C1 (configuration not stated),> 100 µM,> 100 µM,> 100 µM,,> 100 µM,> 100 µM,> 100 µM,,,,,,,,,,,,,
CC1C=CC(C(N)C(=O)O)O1 (configuration not stated),> 100 µM,> 100 µM,> 100 µM,> 100 µM,,> 100 µM,> 100 µM,,,,,,,,,,,,,
COc1cc2c(c(OC)c1OC)-c1ccc(SC)c(=O)cc1[C@@H](NC(=O)C(F)(F)F)CC2,0.194 µM,> 4.64 µM,> 100 µM,< 0.0115 µM,> 100 µM,,> 100 µM,> 100 µM,> 82.2 µM,79.9 µM,,,,,,,,,,
O=C(N/C(=C\c1ccccc1O)c1nc2ccccc2[nH]1)c1ccccc1,,> 100 µM,,> 100 µM,90.8 µM,> 100 µM,> 100 µM,,,,,,,,,,,,,
C/C=C/C(=O)[O-].C/C=C/C(=O)[O-].N.N.N.N.[Co+3].[O-][Cl+3]([O-])([O-])[O-],> 100 µM,> 100 µM,> 100 µM,> 100 µM,> 100 µM,> 100 µM,> 100 µM,,,,> 100 µM,> 100 µM,> 100 µM,> 100 µM,> 100 µM,> 100 µM,> 100 µM,,,
O=C(N=c1nc(NC(=O)c2ccccc2)ss1)c1ccccc1,40.6 µM,92.5 µM,,> 100 µM,> 100 µM,39.7 µM,> 100 µM,,,,,,,,,,,,,
CCCCCCCCCCCCCCCC(=O)OCCOCCOCCOCCOCCOC(=O)CCCCCCCCCCCCCCC,> 100 µM,> 100 µM,> 100 µM,> 100 µM,> 100 µM,> 100 µM,> 100 µM,,,,,,,,,,,,,
CCCCNC(=S)OCCC(C)CCCC(C)C (configuration not stated),> 100 µM,> 100 µM,> 100 µM,> 100 µM,> 100 µM,> 100 µM,> 100 µM,,,,,,,,,,,,,
Cc1ccc(N=C2N=C(N3CC(C)OC(C)C3)c3ccccc32)cc1 (configuration not stated),,78.8 µM,> 100 µM,> 100 µM,> 100 µM,> 100 µM,> 100 µM,,,,,,,,,,,,,
N#CC1(C#N)C=CC(=C2OCC3CCCN23)C=C1 (configuration not stated),> 100 µM,,> 100 µM,> 100 µM,> 100 µM,> 100 µM,> 100 µM,,,,,,,,,,,,,
N#Cc1nc(C#N)c(Sc2ccccc2)c(Sc2ccccc2)c1Sc1ccccc1,> 29.5 µM,2.35 µM,,,3.43 µM,> 27.6 µM,> 20 µM,2.48 µM,2.41 µM,> 100 µM,1.88 µM,,0.36 µM,,,0.502 µM,2.35 µM,0.584 µM,0.565 µM,0.504 µM
C[N+](C)(C)c1cc[c]([Sn]([c]2ccc([N+](C)(C)C)cc2)([c]2ccc([N+](C)(C)C)cc2)[c]2ccc([N+](C)(C)C)cc2)cc1,> 100 µM,> 100 µM,> 100 µM,> 100 µM,> 100 µM,> 100 µM,> 100 µM,,,,> 100 µM,> 100 µM,> 100 µM,> 100 µM,> 100 µM,> 100 µM,> 100 µM,,,

Compound,TGI (HL-60(TB) leukemia),TGI (NCI-H23 lung),TGI (DLD-1 colon),TGI (KM20L2 colon),TGI (TK-10 renal),TGI (NCI-H460 lung),TGI (HOP-62 NSCLC),TGI (T-47D breast),TGI (MCF7 breast),TGI (NCI/ADR-RES ovarian),GI50 (HL-60(TB) leukemia),GI50 (HOP-62 NSCLC),GI50 (NCI-H23 lung),GI50 (DLD-1 colon),GI50 (KM20L2 colon),GI50 (TK-10 renal),GI50 (NCI-H460 lung),GI50 (T-47D breast),GI50 (MCF7 breast),GI50 (NCI/ADR-RES ovarian)
Cn1cc(C2=C(c3cn(CCCN)c4ccccc34)C(=O)NC2=O)c2ccccc21,11.6 µM,14.2 µM,,,12.8 µM,11.1 µM,17 µM,17.5 µM,10.4 µM,> 25 µM,5.04 µM,6.09 µM,5.17 µM,,,4.86 µM,5.25 µM,6.4 µM,3.55 µM,10.8 µM
COc1ccc(O)cc1C(O)c1ccccc1 (configuration not stated),> 100 µM,> 100 µM,> 100 µM,> 100 µM,> 100 µM,> 100 µM,> 100 µM,,,,,,,,,,,,,
O=C(Nc1ccccc1)OC1OC(COC(=O)c2ccccc2)C(OC(=O)c2ccccc2)C1OS(=O)(=O)c1ccc([N+](=O)[O-])cc1 (configuration not stated),> 100 µM,> 100 µM,,,> 100 µM,> 100 µM,> 100 µM,> 100 µM,> 100 µM,> 100 µM,,,,,,,,,,
Cc1nc2sc3c(N)ncnc3c2c(C)c1C,> 25 µM,> 25 µM,,,> 25 µM,> 25 µM,> 25 µM,> 25 µM,> 25 µM,> 25 µM,> 25 µM,> 25 µM,> 25 µM,,,> 25 µM,> 25 µM,> 25 µM,> 25 µM,> 25 µM
Cn1c(=O)c(Oc2ccc(F)cc2F)cc2cnc(N[C@@H]3CCOC3)nc21,> 25 µM,> 25 µM,,,> 25 µM,> 25 µM,> 25 µM,> 25 µM,> 25 µM,> 25 µM,> 25 µM,> 25 µM,> 25 µM,,,> 25 µM,> 25 µM,> 25 µM,> 25 µM,> 25 µM
Clc1ccc2c(c1)N(C1CCCN(Cc3ccccc3)C1)c1ccccc1S2 (configuration not stated),72.5 µM,> 100 µM,,,> 100 µM,10.4 µM,> 100 µM,> 100 µM,> 100 µM,13.7 µM,4.52 µM,22.3 µM,9.33 µM,,,71.8 µM,3.17 µM,7.4 µM,3.25 µM,3.24 µM
O=C1NC2(CCCCC2)C(=O)N1CCN(CCCl)CCCl,25 µM and 183 µM,,> 250 µM,> 194 µM,> 25 µM,25 µM and 249 µM,> 25 µM and 149 µM,25 µM,> 250 µM,> 25 µM and 184 µM,11.8 µM,> 25 µM,24.8 µM,,,,15.7 µM,,> 25 µM,> 25 µM
COS(C)(=O)=O,> 2 µM,> 2 µM,,,> 2 µM,> 2 µM,> 2 µM,> 2 µM,> 2 µM,> 2 µM,,,,,,,,,,
Fc1ccc(-c2nn3ccccc3c2-c2ccncc2)cc1,> 25 µM,> 25 µM,,,> 25 µM,> 25 µM,> 25 µM,> 25 µM,> 25 µM,> 25 µM,> 25 µM,> 25 µM,> 25 µM,,,12 µM,> 25 µM,> 21 µM,> 23.1 µM,> 25 µM
CCOC(=O)c1[nH]c2cc(OC)c(OC)cc2c1CN(C)C,> 100 µM,> 100 µM,> 100 µM,> 100 µM,> 100 µM,> 100 µM,,,,,,,,,,,,,,
COc1ccc(/C=C/C(=O)c2c(-c3ccccc3)nn(C)c(=O)c2N2CCOCC2)cc1,60.6 µM,> 100 µM,> 100 µM,> 100 µM,> 100 µM,> 100 µM,,,,,,,,,,,,,,
c1ccc(Oc2ccc(Nc3ncc(-c4ccccc4)o3)cc2)cc1,> 25 µM,> 25 µM,,,> 25 µM,> 25 µM,> 25 µM,> 25 µM,> 25 µM,> 25 µM,> 25 µM,> 25 µM,> 25 µM,,,> 25 µM,> 25 µM,> 25 µM,> 25 µM,> 25 µM
Nc1nc2c(-c3ccc([N+](=O)[O-])cc3)nnn2c2ccccc12,> 100 µM,> 100 µM,> 100 µM,,48.9 µM,> 100 µM,> 100 µM,,,,,,,,,,,,,
O=C(Nc1ccc(Cl)cc1C(=O)O)c1ccc([N+](=O)[O-])cc1,50.8 µM,,30.9 µM,48.3 µM,86.4 µM,45.7 µM,39.2 µM,,,,,,,,,,,,,
COc1ccc2c(c1)CCc1cc(OC)ccc1/[N+]([O-])=[N+]\2[O-],27.6 µM,52.4 µM,,,45 µM,39.9 µM,52.8 µM,49.1 µM,26.7 µM,> 62 µM,,,,,,,,,,
Nc1ncc(-c2ccc3ncnc(N4CCc5ccc(Cl)cc54)c3c2)cc1C(F)(F)F,> 100 µM,29.4 µM,,,11 µM,13.7 µM,13.2 µM,10.9 µM,14.9 µM,91.1 µM,0.723 µM,1.74 µM,3.79 µM,,,1.36 µM,1.02 µM,0.557 µM,0.375 µM,2.26 µM
